Tested on: 242566-281-R-J2-PDC complex spheroid viability
Assay: Anticancer human tumor 242566-281-R-J2-PDC patient-derived pancreatic carcinoma cell line growth inhibition [CLK]
Conditions: for IC50: curve of first compound; for viability, T/C: stronger effect = lower value
From the text: A high-throughput screen of multi-cell type tumor spheroids was designed to identify active combinations of […] and targeted small molecules. Complex spheroids include a stromal component modeled by human endothelial cells (HUVEC) and fibroblasts modeled by human mesenchymal stem cells (MSCs). The concentration ranges selected for each drug and investigational agent were based upon clinically achievable concentrations if the clinical Cmax of the agent was known.
Compounds. The drugs and investigational agents: cirtuvivint (SM08502; NSC835563), CC-671 (NSC850746), vemurafenib (NSC761431), tapotoclax (NSC804041), sotorasib (NSC818433), adagrasib (NSC831453), MRTX-1133 (NSC836407), BAY2416964 (NSC825713), copanlisib (NSC816437), inavolisib (NSC800729), abemaciclib (NSC768073), osimertinib (NSC779217), entinostat (NSC756642), eltanexor (KPT-8602, NSC794443), venetoclax (NSC766270), ceralasertib (NSC777638), bortezomib (NSC756655), olaparib (NSC753686), talazoparib (NSC767125), alisertib (NSC759677), peposertib (NSC802822), gemcitabine (NSC613327), 5-fluorouracil (NSC19893), SN-38 (NSC673596), oxaliplatin (NSC266046), paclitaxel (NSC125973), and doxorubicin (NSC123127), were obtained from the National Cancer Institute (NCI) Developmental Therapeutics Program Chemical Repository. The FDA-approved anticancer drug set is available from the Developmental Therapeutics Program at https://dtp.cancer.gov/organization/dscb/obtaining/available plates.htm. […] The stock solutions were prepared in dimethyl sulfoxide (DMSO, Sigma-Aldrich, St. Louis, MO, cat. D2650), except for the platinum complexes which were prepared in saline (Quality Biological, Gaithersburg, MD, cat. 114-055-101), at 800-fold the tested concentration and stored at -70 degrees C prior to their use. All drugs and investigational agents were tested over a range starting from a high concentration at or near the clinical Cmax and decreasing in half-log increments. If the clinical Cmax for an agent had not been determined, the highest concentration tested was 10 microM.
Cell Culture. All cells were maintained in an incubator at 37 degrees C and 5% CO2 with 95% humidity. The PDC lines were cultured according to standard operating procedures established by the NCI PDMR. Briefly, all PDCs were thawed and cultured in Matrigel-coated flasks prepared with a working solution of 1X Ham's F-12 nutrient mix, without supplementation (Invitrogen, Waltham, MA, cat. 11765054), 100 U/mL penicillin-streptomycin (Invitrogen, cat. 15140122), and 2.5% Matrigel (Corning Inc., Corning, NY, cat. 354248) for the first three passages. The 947758-054-R-J2-PDC line was cultured in 6B/Colon 1A media, which includes advanced DMEM/F-12 (Thermo Fisher Scientific, cat. 12634028), 10 mM HEPES (Thermo Fisher Scientific, cat. 15630080), 1X GlutaMAX supplement (Thermo Fisher Scientific, cat. 35050061), 0.1 mg/mL primocin (InvivoGen, cat. ant-pm-2), 10% defined fetal bovine serum, heat inactivated (HyClone Laboratories Inc., cat. SH30070.03HI), 1.25 mM N-Acetyl-L-cysteine (Sigma-Aldrich, cat. A9165), 10 mM nicotinamide (Sigma-Aldrich, cat. N0636), 1X B-27 supplement (Thermo Fisher Scientific, cat. 17504044), 1X N-2 supplement (Thermo Fisher Scientific, cat. 17502048), and 10 microM Y-27632 dihydrochloride (Tocris Bioscience, cat. 1254). The 876862-298-R-J1-PDC was cultured in 6E media, which includes all 6B/Colon 1A media components plus 50% L-WRN conditioned media (ATCC, cat. CRL-3276), 50 ng/mL recombinant human EGF recombinant protein (hEGF; Thermo Fisher Scientific, cat. PHG0311), 10 ng/mL recombinant human fibroblast growth factor 10 (hGFG-10; PeproTech, cat. 100-26), 1 ng/mL recombinant human fibroblast growth factor 2 (hFGF-2; PeproTech, cat. 100-18B), and 1 µM prostaglandin E2 (PGE2; Tocris, cat. 2296). The 227483-062-R1-J1-PDC line was cultured in Panc media, containing all 6E components except hFGF-2, with the addition of 500 nM SB-431542 (Selleckchem, cat. S1067) and 10 nM gastrin (Tocris, cat. 3006). […]

[1] = second compound 0.0316 µM, first compound 0.0316 µM
[2] = second compound 0.0316 µM, first compound 0.1 µM
[3] = second compound 0.0316 µM, first compound 0.316 µM
[4] = second compound 0.0316 µM, first compound 1 µM
[5] = second compound 0.0316 µM, first compound 3.16 µM
[6] = second compound 0.0316 µM, first compound 10 µM
[7] = second compound 0.1 µM, first compound 0.0316 µM
[8] = second compound 0.1 µM, first compound 0.1 µM
[9] = second compound 0.1 µM, first compound 0.316 µM
[10] = second compound 0.1 µM, first compound 1 µM
[11] = second compound 0.1 µM, first compound 3.16 µM
[12] = second compound 0.1 µM, first compound 10 µM
[13] = second compound 0.316 µM, first compound 0.0316 µM
[14] = second compound 0.316 µM, first compound 0.1 µM
[15] = second compound 0.316 µM, first compound 0.316 µM
[16] = second compound 0.316 µM, first compound 1 µM
[17] = second compound 0.316 µM, first compound 3.16 µM
[18] = second compound 0.316 µM, first compound 10 µM
[19] = second compound 1 µM, first compound 0.0316 µM
[20] = second compound 1 µM, first compound 0.1 µM
[21] = second compound 1 µM, first compound 0.316 µM
[22] = second compound 1 µM, first compound 1 µM
[23] = second compound 1 µM, first compound 3.16 µM
[24] = second compound 1 µM, first compound 10 µM
[25] = second compound 3.16 µM, first compound 0.0316 µM
[26] = second compound 3.16 µM, first compound 0.1 µM
[27] = second compound 3.16 µM, first compound 0.316 µM
[28] = second compound 3.16 µM, first compound 1 µM
[29] = second compound 3.16 µM, first compound 3.16 µM
[30] = second compound 3.16 µM, first compound 10 µM
[31] = second compound 10 µM, first compound 0.0316 µM
[32] = second compound 10 µM, first compound 0.1 µM
[33] = second compound 10 µM, first compound 0.316 µM
[34] = second compound 10 µM, first compound 1 µM
[35] = second compound 10 µM, first compound 3.16 µM
[36] = second compound 10 µM, first compound 10 µM
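Further: spheroids exposed to compounds for 7 days before readout.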
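Wherever viability, T/C is given: 100% = DMSO vehicle control wells.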

`C#Cc1c(F)ccc2cc(O)cc(-c3ncc4c(N5CC6CCC(C5)N6)nc(OCC56CCCN5CC(F)C6)nc4c3F)c12` (stereo unspecified) + CN1CCN(c2cc(C(=O)Nc3cc4cc(-c5cnn(C)c5)ccc4cn3)ccn2)CC1 gave an IC50 (second compound 0.0316 µM) of 84.6 nM, an IC50 (second compound 0.1 µM) of 65.3 nM and an IC50 (second compound 0.316 µM) of under 31.6 nM. It also gave an IC50 (second compound 1 µM) of under 31.6 nM, an IC50 (second compound 3.16 µM) of under 31.6 nM and an IC50 (second compound 10 µM) of under 31.6 nM. For the same molecule, the viability, T/C [1] was 63.9%, the viability, T/C [2] was 47.5% and the viability, T/C [3] was 34%. The viability, T/C [4] was 29.4%, the viability, T/C [5] was 23.9% and the viability, T/C [6] was 17.1%. The viability, T/C [7] was 61.3%, the viability, T/C [8] was 42.9% and the viability, T/C [9] was 31.1%. The viability, T/C [10] was 19.9%, the viability, T/C [11] was 18.5% and the viability, T/C [12] was 15.5%. The viability, T/C [13] was 18.4%, the viability, T/C [14] was 13.2% and the viability, T/C [15] was 12.2%. It also gave a viability, T/C [16] of 10.6%, a viability, T/C [17] of 7.18% and a viability, T/C [18] of 3.44%. It also gave a viability, T/C [19] of 1.87%, a viability, T/C [20] of 1.39% and a viability, T/C [21] of 1.09%. For the same molecule, the viability, T/C [22] was 1.22%, the viability, T/C [23] was 1.43% and the viability, T/C [24] was 1.26%. It also gave a viability, T/C [25] of 2.9%, a viability, T/C [26] of 2.24% and a viability, T/C [27] of 2.74%. It also gave a viability, T/C [28] of 2.35%, a viability, T/C [29] of 2.06% and a viability, T/C [30] of 1.51%. The viability, T/C [31] was 1.01%, the viability, T/C [32] was 0.76% and the viability, T/C [33] was 0.69%. The viability, T/C [34] was 0.78%, the viability, T/C [35] was 0.71% and the viability, T/C [36] was 0.34%.

Molecule `C=C(F)C(=O)N1CCN(c2nc(OCC3CCCN3C)nc3c2CCN(c2cccc4cccc(Cl)c24)C3)CC1CC#N` (stereo unspecified) + CN1CCN(c2cc(C(=O)Nc3cc4cc(-c5cnn(C)c5)ccc4cn3)ccn2)CC1 has an IC50 (second compound 0.0316 µM) of 4990 nM, an IC50 (second compound 0.1 µM) of 4260 nM and an IC50 (second compound 0.316 µM) of under 31.6 nM. For the same molecule, the IC50 (second compound 1 µM) was under 31.6 nM, the IC50 (second compound 3.16 µM) was under 31.6 nM and the IC50 (second compound 10 µM) was under 31.6 nM. The viability, T/C [1] was 84.6%, the viability, T/C [2] was 115% and the viability, T/C [3] was 104%. For the same molecule, the viability, T/C [4] was 114%, the viability, T/C [5] was 82.7% and the viability, T/C [6] was 0.15%. The viability, T/C [7] was 103%, the viability, T/C [8] was 95.9% and the viability, T/C [9] was 90.9%. The viability, T/C [10] was 90.2%, the viability, T/C [11] was 67.7% and the viability, T/C [12] was 0.87%. For the same molecule, the viability, T/C [13] was 42.9%, the viability, T/C [14] was 38.7% and the viability, T/C [15] was 50.4%. The viability, T/C [16] was 41.3%, the viability, T/C [17] was 25.2% and the viability, T/C [18] was 0.12%. For the same molecule, the viability, T/C [19] was 4.94%, the viability, T/C [20] was 4.71% and the viability, T/C [21] was 4.65%. It also gave a viability, T/C [22] of 4.68%, a viability, T/C [23] of 3.14% and a viability, T/C [24] of 0.13%. It also gave a viability, T/C [25] of 7.96%, a viability, T/C [26] of 8.51% and a viability, T/C [27] of 7.38%. The viability, T/C [28] was 6.75%, the viability, T/C [29] was 4.99% and the viability, T/C [30] was 0.12%. It also gave a viability, T/C [31] of 2.22%, a viability, T/C [32] of 2.75% and a viability, T/C [33] of 2.19%. It also gave a viability, T/C [34] of 1.43%, a viability, T/C [35] of 0.37% and a viability, T/C [36] of 0.24%.

`CC(CO)NC(=O)c1cc(-c2ccc(Cl)cc2)nn(-c2cnn(C)c2)c1=O` (stereo unspecified) + CN1CCN(c2cc(C(=O)Nc3cc4cc(-c5cnn(C)c5)ccc4cn3)ccn2)CC1 gave an IC50 (second compound 0.0316 µM) of over 10000 nM, an IC50 (second compound 0.1 µM) of over 10000 nM and an IC50 (second compound 0.316 µM) of under 31.6 nM. It also gave an IC50 (second compound 1 µM) of under 31.6 nM, an IC50 (second compound 3.16 µM) of under 31.6 nM and an IC50 (second compound 10 µM) of under 31.6 nM. The viability, T/C [1] was 95.6%, the viability, T/C [2] was 117% and the viability, T/C [3] was 129%. It also gave a viability, T/C [4] of 106%, a viability, T/C [5] of 101% and a viability, T/C [6] of 93.6%. For the same molecule, the viability, T/C [7] was 93.5%, the viability, T/C [8] was 104% and the viability, T/C [9] was 87.3%. For the same molecule, the viability, T/C [10] was 94%, the viability, T/C [11] was 101% and the viability, T/C [12] was 72.3%. For the same molecule, the viability, T/C [13] was 38.2%, the viability, T/C [14] was 43% and the viability, T/C [15] was 39.9%. The viability, T/C [16] was 36.5%, the viability, T/C [17] was 41.5% and the viability, T/C [18] was 37.6%. For the same molecule, the viability, T/C [19] was 4.91%, the viability, T/C [20] was 5.11% and the viability, T/C [21] was 5.14%. For the same molecule, the viability, T/C [22] was 5.04%, the viability, T/C [23] was 4.52% and the viability, T/C [24] was 4.45%. It also gave a viability, T/C [25] of 6.35%, a viability, T/C [26] of 7.68% and a viability, T/C [27] of 8.66%. The viability, T/C [28] was 7.21%, the viability, T/C [29] was 7.5% and the viability, T/C [30] was 6.89%. The viability, T/C [31] was 2.09%, the viability, T/C [32] was 2.51% and the viability, T/C [33] was 2.07%. For the same molecule, the viability, T/C [34] was 2.91%, the viability, T/C [35] was 2.05% and the viability, T/C [36] was 0.93%.
